The values below are quoted from earlier work in US20060193783A1, “Low dose corticosteroid composition” (priority 2003, published 2006).

Structures are written as SMILES.

For data set [1] the following is noted: used nasally.

`CCCC1O[C@@H]2C[C@H]3[C@@H]4CCC5=CC(=O)C=C[C@]5(C)[C@H]4[C@@H](O)C[C@]3(C)[C@]2(C(=O)CO)O1` (some centres unmarked) [Budesonide]: the solubility in water entry is “virtually insoluble in water”.
Turning to `CN1CCCC1=O` [N-methyl pyrrolidone], the nasal irritation entry in data set [1] is given as “does not cause any nasal irritation”.
